Tests used:
[1] = test system: Wnt3a-stimulated β-catenin signaling in HEK293-TB cells; assay: luciferase reporter assay, HEK293-TB cells transfected with pCDNA3.2-Wnt3a; type: cell-based
[2] = test system: receptor-independent β-catenin signaling in 6-BIO-treated HEK293-TB cells; assay: epistasis study, HEK293-TB cells stimulated with 6-BIO; type: cell-based; conditions: 10 μM 6-BIO, 6 hr; FIG. 2E
[3] = test system: Lgr5-GFP organoids pre-treated with CHIR99021; APC^min organoids; assay: RT-PCR in organoids with active downstream Wnt signaling (CHIR99021 or APC^min); type: cell-based, mouse; conditions: peptide 100 μM, 24 h; CHIR99021 5 μM pre-treatment or Apc mutant background
Experimental: Mouse organoids were established from isolated crypts collected from the entire length of the small intestine and maintained as previously described (Sato et al. (2009) Nature 459, 262-265 (2009). All mouse derived tissue was performed according to the animal use guidelines of Genentech, a Member of the Roche Group, and the Institutional Animal Care and Use Committee, conforming to California State legal and ethical practices. Mouse sex was not selected for. Organoids were passaged at least twice per week and grown using IntestiCult Organoid growth media (cat. no. 06005; StemCell Technologies). Peptides were suspended in DMSO and dissolved in media to 1% DMSO final concentration, then added to organoids to initiate drug treatment. Antibodies were added to 10 μg/ml concentration. […]
Briefly, Lgr5-GFP organoids were pre-treated with DMSO or the Gsk3β inhibitor CHIR99021 (5 μM) for 24 h, then treated with DMSO, dFz7-21 (100 μM), or Fz7-21S (100 μM)±CHIR99021. Transcripts were quantified by RT-PCR for Axin2 (FIG. 42A), and Asc12 (FIG. 42B). In a second set of experiments, APC^min organoids were cultured and treated with DMSO, dFz7-21 (100 μM), Fz7-21S (100 μM) for 24 h, and transcripts were quantified by RT-PCR for Axin2 (FIG. 42C), Asc12 (FIG. 42D), and Lgr5 ([…]).

[4] = test system: organoids derived from Lgr5-GFP mice; assay: flow cytometry of Lgr5-GFP stem cells in organoids; type: cell-based, mouse; conditions: compared to control DMSO; FIGS. 41A-41C
Experimental: The pharmacological effect of dFz7-21 was further investigated by conducting RNA sequencing on intestinal organoid samples that were treated with dFz7-21 for 6 and 24 h. […] Concurrently, there was also an up-regulation of enterocyte markers (pro-differentiation) in the dFz7-21 treated organoids. Among the most down regulated genes upon dFz7-21 treatment were Lgr5, Olfm4 and Asc12. […] Finally, to assess the effect of dFz7-21 directly on stem cells, the presence of GFP+ stem cells in organoids derived from Lgr5-GFP mice was monitored as described in Tian, H. et al. “A reserve stem cell population in small intestine renders Lgr5-positive cells dispensable.” Nature 478, 255-259 (2011). Treatment with dFz7-21 reduced the number of Lgr5-GFP stem cells compared to control DMSO as assayed by flow cytometry (see FIGS. 41A-41C) and confocal microscopy (data not shown). In FIGS. 41A and 41B, Lgr5-GFP organoids were dissociated, treated with SYTOX and analyzed by flow cytometry.

Sequence | inhibition of Wnt3a signaling [1] | inhibition of Wnt signaling in 6-BIO-treated cells [2] | stem cell (Lgr5, Ascl2) and Wnt signaling (Axin2) markers [3] | number of Lgr5-GFP stem cells [4]
LPSDDLEFWSHVMY [Fz7-21S, negative control] | not found to inhibit | Neither Fz7-21 nor Fz7-21S inhibited |  | 
LPSDDLEFWCHVMY [dFz7-21] |  |  | Little or no effect | reduced
